ChEMBL document CHEMBL4507257, “Data for DCP probe ABT-100” (2021)

Assays:
[1] = test system: Tyrosine-protein kinase ABL1 (Homo sapiens), P00519 [F317I]; conditions: Compound concentration 1000.0 nM
[2] = test system: Tyrosine-protein kinase ABL1 (Homo sapiens), P00519 [T315I]; conditions: Compound concentration 1000.0 nM
[3] = test system: Tyrosine-protein kinase ABL1 (Homo sapiens), P00519 [T315I]; conditions: Compound concentration 1000.0 nM; remark: listed apart in the source
[4] = target: Activin receptor type-2B (Homo sapiens) (UniProt Q13705); conditions: Compound concentration 1000.0 nM
[5] = target: RAC-beta serine/threonine-protein kinase (Homo sapiens) (UniProt P31751); conditions: Compound concentration 1000.0 nM
[6] = test system: ALK tyrosine kinase receptor (Homo sapiens), Q9UM73 [L1196M]; conditions: Compound concentration 1000.0 nM
[7] = target: NUAK family SNF1-like kinase 1 (Homo sapiens) (UniProt O60285); conditions: Compound concentration 1000.0 nM
[8] = target: Bone morphogenetic protein receptor type-1B (Homo sapiens) (UniProt O00238); conditions: Compound concentration 1000.0 nM
[9] = target: Calcium/calmodulin-dependent protein kinase type II subunit alpha (Homo sapiens) (UniProt Q9UQM7); conditions: Compound concentration 1000.0 nM
[10] = target: Cyclin-dependent kinase 4 (Homo sapiens) (UniProt P11802); conditions: Compound concentration 1000.0 nM
[11] = target: Casein kinase I isoform gamma-3 (Homo sapiens) (UniProt Q9Y6M4); conditions: Compound concentration 1000.0 nM
[12] = target: Serine/threonine-protein kinase MRCK gamma (Homo sapiens) (UniProt Q6DT37); conditions: Compound concentration 1000.0 nM
[13] = target: Epidermal growth factor receptor (Homo sapiens) (UniProt P00533); conditions: Compound concentration 1000.0 nM
[14] = test system: Epidermal growth factor receptor (Homo sapiens), P00533 [G719C]; conditions: Compound concentration 1000.0 nM
[15] = target: Ephrin type-A receptor 5 (Homo sapiens) (UniProt P54756); conditions: Compound concentration 1000.0 nM
[16] = target: Ephrin type-A receptor 7 (Homo sapiens) (UniProt Q15375); conditions: Compound concentration 1000.0 nM
[17] = target: G protein-coupled receptor kinase 4 (Homo sapiens) (UniProt P32298); conditions: Compound concentration 1000.0 nM
[18] = target: Rhodopsin kinase GRK7 (Homo sapiens) (UniProt Q8WTQ7); conditions: Compound concentration 1000.0 nM
[19] = test system: Mast/stem cell growth factor receptor Kit (Homo sapiens), P10721 [D816H]; conditions: Compound concentration 1000.0 nM
[20] = test system: Mast/stem cell growth factor receptor Kit (Homo sapiens), P10721 [L576P]; conditions: Compound concentration 1000.0 nM
[21] = test system: Mast/stem cell growth factor receptor Kit (Homo sapiens), P10721 [V559D]; conditions: Compound concentration 1000.0 nM
[22] = target: Serine/threonine-protein kinase STK11 (Homo sapiens) (UniProt Q15831); conditions: Compound concentration 1000.0 nM
[23] = target: Mitogen-activated protein kinase kinase kinase 2 (Homo sapiens) (UniProt Q9Y2U5); conditions: Compound concentration 1000.0 nM
[24] = target: Serine/threonine-protein kinase Nek2 (Homo sapiens) (UniProt P51955); conditions: Compound concentration 1000.0 nM
[25] = target: Cyclin-dependent kinase 15 (Homo sapiens) (UniProt Q96Q40); conditions: Compound concentration 1000.0 nM
[26] = target: Cyclin-dependent kinase 14 (Homo sapiens) (UniProt O94921); conditions: Compound concentration 1000.0 nM
[27] = target: Phosphorylase b kinase regulatory subunit alpha, liver isoform (Homo sapiens) (UniProt P46019); conditions: Compound concentration 1000.0 nM
[28] = test system: Phosphatidylinositol 4,5-bisphosphate 3-kinase catalytic subunit alpha isoform (Homo sapiens), P42336 [H1047Y]; conditions: Compound concentration 1000.0 nM
[29] = target: 1-phosphatidylinositol 3-phosphate 5-kinase (Homo sapiens) (UniProt Q9Y2I7); conditions: Compound concentration 1000.0 nM
[30] = target: Protein kinase C epsilon type (Homo sapiens) (UniProt Q02156); conditions: Compound concentration 1000.0 nM
[31] = target: Protein kinase C iota type (Homo sapiens) (UniProt P41743); conditions: Compound concentration 1000.0 nM
[32] = target: Serine/threonine-protein kinase RIO2 (Homo sapiens) (UniProt Q9BVS4); conditions: Compound concentration 1000.0 nM
[33] = target: Ribosomal protein S6 kinase alpha-4 (Homo sapiens) (UniProt O75676); conditions: Compound concentration 1000.0 nM
[34] = target: Ribosomal protein S6 kinase alpha-3 (Homo sapiens) (UniProt P51812); conditions: Compound concentration 1000.0 nM
[35] = target: Ribosomal protein S6 kinase alpha-2 (Homo sapiens) (UniProt Q15349); conditions: Compound concentration 1000.0 nM
[36] = target: Serine/threonine-protein kinase SIK1 (Homo sapiens) (UniProt P57059); conditions: Compound concentration 1000.0 nM
[37] = target: Tyrosine-protein kinase SYK (Homo sapiens) (UniProt P43405); conditions: Compound concentration 1000.0 nM
[38] = target: Activated CDC42 kinase 1 (Homo sapiens) (UniProt Q07912); conditions: Compound concentration 1000.0 nM
[39] = target: NT-3 growth factor receptor (Homo sapiens) (UniProt Q16288); conditions: Compound concentration 1000.0 nM
[40] = target: Non-receptor tyrosine-protein kinase TYK2 (Homo sapiens) (UniProt P29597); conditions: Compound concentration 1000.0 nM
[41] = target: Vascular endothelial growth factor receptor 2 (Homo sapiens) (UniProt P35968); conditions: Compound concentration 1000.0 nM
[42] = target: Tyrosine-protein kinase Yes (Homo sapiens) (UniProt P07947); conditions: Compound concentration 1000.0 nM
[43] = target: Mitogen-activated protein kinase kinase kinase 20 (Homo sapiens) (UniProt Q9NYL2); conditions: Compound concentration 1000.0 nM
[44] = target: D(3) dopamine receptor (Homo sapiens) (UniProt P35462); conditions: Compound concentration 10.0 uM
[45] = target: Mu-type opioid receptor (Homo sapiens) (UniProt P35372); conditions: Compound concentration 10.0 uM
Mu-type opioid receptor (Homo sapiens), sequence (P35372 whole entry): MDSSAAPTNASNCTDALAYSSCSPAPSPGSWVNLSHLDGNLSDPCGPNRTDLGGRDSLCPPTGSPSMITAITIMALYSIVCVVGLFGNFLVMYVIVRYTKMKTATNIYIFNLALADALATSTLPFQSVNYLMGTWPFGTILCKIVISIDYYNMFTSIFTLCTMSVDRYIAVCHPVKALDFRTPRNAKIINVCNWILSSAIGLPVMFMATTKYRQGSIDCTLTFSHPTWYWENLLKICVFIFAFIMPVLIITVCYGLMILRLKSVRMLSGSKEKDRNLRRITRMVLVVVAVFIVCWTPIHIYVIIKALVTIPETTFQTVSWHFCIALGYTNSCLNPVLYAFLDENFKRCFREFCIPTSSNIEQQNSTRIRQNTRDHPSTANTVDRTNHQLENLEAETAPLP

Ribosomal protein S6 kinase alpha-3 (Homo sapiens), sequence (P51812 whole entry): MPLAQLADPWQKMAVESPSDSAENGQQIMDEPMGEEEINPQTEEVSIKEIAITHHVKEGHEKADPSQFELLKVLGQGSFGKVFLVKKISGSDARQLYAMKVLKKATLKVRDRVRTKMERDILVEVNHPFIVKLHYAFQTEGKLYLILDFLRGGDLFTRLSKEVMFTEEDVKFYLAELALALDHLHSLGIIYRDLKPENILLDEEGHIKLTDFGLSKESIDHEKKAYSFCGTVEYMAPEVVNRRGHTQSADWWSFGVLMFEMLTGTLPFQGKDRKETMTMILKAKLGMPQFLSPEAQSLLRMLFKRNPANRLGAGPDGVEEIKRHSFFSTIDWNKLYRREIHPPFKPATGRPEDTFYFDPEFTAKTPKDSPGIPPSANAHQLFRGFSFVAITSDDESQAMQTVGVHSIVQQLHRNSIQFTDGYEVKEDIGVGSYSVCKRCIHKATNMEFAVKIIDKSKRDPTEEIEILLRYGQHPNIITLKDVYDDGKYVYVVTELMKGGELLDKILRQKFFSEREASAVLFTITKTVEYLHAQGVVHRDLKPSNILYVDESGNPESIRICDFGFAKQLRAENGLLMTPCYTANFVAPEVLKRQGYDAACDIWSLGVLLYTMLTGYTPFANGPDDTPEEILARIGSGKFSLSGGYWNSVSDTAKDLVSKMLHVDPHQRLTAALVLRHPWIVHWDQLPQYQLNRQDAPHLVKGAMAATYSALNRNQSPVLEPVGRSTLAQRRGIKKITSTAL
Casein kinase I isoform gamma-3 (Homo sapiens), sequence (Q9Y6M4 whole entry, looked up, canonical isoform): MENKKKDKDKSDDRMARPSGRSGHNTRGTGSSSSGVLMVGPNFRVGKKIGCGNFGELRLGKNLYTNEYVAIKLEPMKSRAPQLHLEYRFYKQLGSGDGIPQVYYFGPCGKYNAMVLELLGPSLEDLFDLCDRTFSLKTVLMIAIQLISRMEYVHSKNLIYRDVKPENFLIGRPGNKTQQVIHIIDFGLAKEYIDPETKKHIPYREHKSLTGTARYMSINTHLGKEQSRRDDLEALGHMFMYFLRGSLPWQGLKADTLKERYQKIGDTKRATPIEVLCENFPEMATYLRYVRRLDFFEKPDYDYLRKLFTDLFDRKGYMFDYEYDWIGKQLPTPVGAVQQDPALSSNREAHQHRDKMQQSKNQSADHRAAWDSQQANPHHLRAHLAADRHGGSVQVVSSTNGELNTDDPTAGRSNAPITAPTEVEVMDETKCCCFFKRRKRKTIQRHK
NUAK family SNF1-like kinase 1 (Homo sapiens), sequence (O60285 whole entry): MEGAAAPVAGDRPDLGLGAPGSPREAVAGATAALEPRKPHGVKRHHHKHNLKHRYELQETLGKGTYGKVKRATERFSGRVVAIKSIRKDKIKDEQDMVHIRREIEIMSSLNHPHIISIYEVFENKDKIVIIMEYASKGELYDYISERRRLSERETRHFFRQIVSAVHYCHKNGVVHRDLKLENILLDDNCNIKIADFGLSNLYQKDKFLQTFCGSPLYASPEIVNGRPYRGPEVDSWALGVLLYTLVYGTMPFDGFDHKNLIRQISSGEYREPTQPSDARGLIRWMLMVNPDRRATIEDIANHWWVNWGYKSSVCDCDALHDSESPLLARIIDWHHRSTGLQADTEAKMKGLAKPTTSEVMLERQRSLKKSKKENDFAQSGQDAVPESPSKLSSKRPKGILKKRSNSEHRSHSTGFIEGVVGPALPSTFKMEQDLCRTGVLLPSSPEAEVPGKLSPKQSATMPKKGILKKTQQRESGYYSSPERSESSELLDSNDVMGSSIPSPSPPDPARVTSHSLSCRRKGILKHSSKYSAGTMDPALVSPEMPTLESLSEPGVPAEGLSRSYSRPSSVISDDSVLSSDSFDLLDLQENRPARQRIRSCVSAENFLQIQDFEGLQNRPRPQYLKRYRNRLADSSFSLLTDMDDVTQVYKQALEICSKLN
Ribosomal protein S6 kinase alpha-4 (Homo sapiens), sequence (O75676 whole entry, looked up): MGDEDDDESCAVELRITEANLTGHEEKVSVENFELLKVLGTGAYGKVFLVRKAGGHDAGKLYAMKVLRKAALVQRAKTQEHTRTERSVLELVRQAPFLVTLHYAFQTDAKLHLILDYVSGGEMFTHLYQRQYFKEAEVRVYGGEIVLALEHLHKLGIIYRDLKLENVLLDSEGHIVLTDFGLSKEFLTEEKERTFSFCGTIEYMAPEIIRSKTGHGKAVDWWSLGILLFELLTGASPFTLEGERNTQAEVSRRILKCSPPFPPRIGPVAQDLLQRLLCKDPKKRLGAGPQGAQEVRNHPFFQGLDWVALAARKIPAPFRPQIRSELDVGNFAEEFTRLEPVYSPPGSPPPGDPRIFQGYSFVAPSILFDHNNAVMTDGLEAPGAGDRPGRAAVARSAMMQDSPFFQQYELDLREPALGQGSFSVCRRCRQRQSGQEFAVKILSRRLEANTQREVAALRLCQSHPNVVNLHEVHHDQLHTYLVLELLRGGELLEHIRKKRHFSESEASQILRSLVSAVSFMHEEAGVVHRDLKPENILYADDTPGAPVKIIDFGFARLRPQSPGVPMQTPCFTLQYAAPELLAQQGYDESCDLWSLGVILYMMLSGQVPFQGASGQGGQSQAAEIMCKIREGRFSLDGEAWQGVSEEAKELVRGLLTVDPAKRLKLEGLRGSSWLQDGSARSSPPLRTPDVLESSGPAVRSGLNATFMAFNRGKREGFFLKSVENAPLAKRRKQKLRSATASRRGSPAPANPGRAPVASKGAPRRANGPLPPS
RAC-beta serine/threonine-protein kinase (Homo sapiens), sequence (P31751 whole entry): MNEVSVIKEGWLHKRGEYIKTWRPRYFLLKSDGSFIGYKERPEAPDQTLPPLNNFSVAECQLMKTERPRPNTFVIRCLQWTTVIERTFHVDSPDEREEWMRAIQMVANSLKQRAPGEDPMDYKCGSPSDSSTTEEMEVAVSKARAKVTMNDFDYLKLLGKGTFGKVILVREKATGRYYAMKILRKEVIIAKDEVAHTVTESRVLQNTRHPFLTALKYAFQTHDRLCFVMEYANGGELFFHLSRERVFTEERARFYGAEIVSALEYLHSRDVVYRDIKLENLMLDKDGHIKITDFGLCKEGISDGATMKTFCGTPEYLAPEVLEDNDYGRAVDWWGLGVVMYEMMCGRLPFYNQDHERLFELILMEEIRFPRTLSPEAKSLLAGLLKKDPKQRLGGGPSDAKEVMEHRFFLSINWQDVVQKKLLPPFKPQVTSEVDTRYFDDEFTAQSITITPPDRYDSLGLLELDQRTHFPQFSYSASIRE
D(3) dopamine receptor (Homo sapiens), sequence (P35462 whole entry): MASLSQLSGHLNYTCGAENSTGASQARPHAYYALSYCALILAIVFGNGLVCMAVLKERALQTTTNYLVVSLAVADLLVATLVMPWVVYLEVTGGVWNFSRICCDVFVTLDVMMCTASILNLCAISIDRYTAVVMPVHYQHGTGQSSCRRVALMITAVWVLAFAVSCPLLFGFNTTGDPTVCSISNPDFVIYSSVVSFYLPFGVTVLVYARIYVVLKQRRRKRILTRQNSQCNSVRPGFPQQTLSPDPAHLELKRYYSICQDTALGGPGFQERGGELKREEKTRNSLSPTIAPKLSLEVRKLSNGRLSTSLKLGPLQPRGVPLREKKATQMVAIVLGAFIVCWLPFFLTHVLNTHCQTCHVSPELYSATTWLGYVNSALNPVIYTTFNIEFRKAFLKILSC
Cyclin-dependent kinase 15 (Homo sapiens), sequence (Q96Q40 whole entry): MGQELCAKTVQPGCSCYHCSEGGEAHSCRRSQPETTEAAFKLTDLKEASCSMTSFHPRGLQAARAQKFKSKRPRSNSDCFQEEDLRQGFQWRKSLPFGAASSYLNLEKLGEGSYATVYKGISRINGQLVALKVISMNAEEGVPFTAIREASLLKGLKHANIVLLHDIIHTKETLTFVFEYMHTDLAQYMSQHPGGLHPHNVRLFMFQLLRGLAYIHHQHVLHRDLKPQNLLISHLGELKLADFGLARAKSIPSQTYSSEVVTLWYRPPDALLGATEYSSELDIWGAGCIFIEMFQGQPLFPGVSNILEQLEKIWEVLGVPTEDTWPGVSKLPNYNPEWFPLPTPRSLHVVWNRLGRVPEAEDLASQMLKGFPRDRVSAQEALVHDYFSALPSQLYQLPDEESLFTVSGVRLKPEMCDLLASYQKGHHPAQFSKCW
Rhodopsin kinase GRK7 (Homo sapiens), sequence (Q8WTQ7 whole entry): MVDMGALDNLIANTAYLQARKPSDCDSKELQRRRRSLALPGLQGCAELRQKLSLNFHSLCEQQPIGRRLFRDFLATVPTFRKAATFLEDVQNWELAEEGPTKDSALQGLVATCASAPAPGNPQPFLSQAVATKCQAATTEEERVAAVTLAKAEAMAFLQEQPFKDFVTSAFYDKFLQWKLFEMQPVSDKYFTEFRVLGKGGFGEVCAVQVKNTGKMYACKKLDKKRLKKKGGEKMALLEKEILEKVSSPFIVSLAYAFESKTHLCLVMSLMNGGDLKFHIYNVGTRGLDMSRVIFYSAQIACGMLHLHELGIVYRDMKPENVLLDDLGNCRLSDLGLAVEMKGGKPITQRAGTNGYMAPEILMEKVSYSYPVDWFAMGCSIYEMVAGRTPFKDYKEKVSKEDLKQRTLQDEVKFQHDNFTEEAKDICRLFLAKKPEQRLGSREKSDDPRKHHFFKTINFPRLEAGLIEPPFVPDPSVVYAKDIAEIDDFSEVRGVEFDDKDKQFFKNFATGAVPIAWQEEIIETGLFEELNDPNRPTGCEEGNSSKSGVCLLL

Which results are given for `Cn1cncc1[C@@](O)(COc1ccc(C#N)cc1-c1ccc(OC(F)(F)F)cc1)c1ccc(C#N)cc1` [A-108]?
residual activity [1]: 88%; residual activity [2]: 100%; residual activity [3]: 6.1%; residual activity [4]: 100%; residual activity [5]: 78%; residual activity [6]: 100%; residual activity [7]: 100%; residual activity [8]: 96%; residual activity [9]: 84%; residual activity [10]: 92%; residual activity [11]: 100%; residual activity [12]: 96%; residual activity [13]: 100%; residual activity [14]: 66%; residual activity [15]: 67%; residual activity [16]: 100%; residual activity [17]: 56%; residual activity [18]: 81%; residual activity [19]: 100%; residual activity [20]: 95%; residual activity [21]: 97%; residual activity [22]: 100%; residual activity [23]: 100%; residual activity [24]: 95%; residual activity [25]: 100%; residual activity [26]: 100%; residual activity [27]: 92%; residual activity [28]: 100%; residual activity [29]: 100%; residual activity [30]: 100%; residual activity [31]: 100%; residual activity [32]: 100%; residual activity [33]: 93%; residual activity [34]: 72%; residual activity [35]: 100%; residual activity [36]: 100%; residual activity [37]: 100%; residual activity [38]: 100%; residual activity [39]: 99%; residual activity [40]: 92%; residual activity [41]: 100%; residual activity [42]: 100%; residual activity [43]: 85%; inhibition [44]: 18.1%; inhibition [45]: -3.25%

How did the residual activity [1] turn out when `Cn1cncc1[C@](O)(COc1ccc(C#N)cc1-c1ccc(OC(F)(F)F)cc1)c1ccc(C#N)cc1` [ABT-100] was run?
Its residual activity is 100%.

What about the residual activity [2] of the same molecule?
Its residual activity is 100%.

And the residual activity [3]?
The residual activity was 84%.

What about the residual activity [4] of the same molecule?
The residual activity was 100%.

What about the residual activity [5] of the same molecule?
Its residual activity is 81%.

And the residual activity [6]?
The residual activity was 100%.

What about the residual activity [7] of the same molecule?
The residual activity was 81%.

And the residual activity [8]?
Its residual activity is 77%.

What about the residual activity [9] of the same molecule?
The residual activity was 95%.

And the residual activity [10]?
The residual activity was 100%.

And the residual activity [11]?
Its residual activity is 71%.

What about the residual activity [12] of the same molecule?
Its residual activity is 85%.

What about the residual activity [13] of the same molecule?
Its residual activity is 80%.

What about the residual activity [14] of the same molecule?
Its residual activity is 82%.

What about the residual activity [15] of the same molecule?
Its residual activity is 97%.

What about the residual activity [16] of the same molecule?
The residual activity was 91%.

What about the residual activity [17] of the same molecule?
The residual activity was 62%.

What about the residual activity [18] of the same molecule?
The residual activity was 100%.

And the residual activity [19]?
Its residual activity is 77%.

What about the residual activity [20] of the same molecule?
Its residual activity is 100%.

What about the residual activity [21] of the same molecule?
Its residual activity is 100%.

And the residual activity [22]?
Its residual activity is 71%.

What about the residual activity [23] of the same molecule?
Its residual activity is 77%.

And the residual activity [24]?
The residual activity was 100%.

And the residual activity [25]?
Its residual activity is 59%.

What about the residual activity [26] of the same molecule?
The residual activity was 86%.

What about the residual activity [27] of the same molecule?
The residual activity was 92%.

And the residual activity [28]?
Its residual activity is 77%.

And the residual activity [29]?
Its residual activity is 100%.

And the residual activity [30]?
The residual activity was 79%.

And the residual activity [31]?
Its residual activity is 100%.

What about the residual activity [32] of the same molecule?
The residual activity was 83%.

What about the residual activity [33] of the same molecule?
The residual activity was 76%.

What about the residual activity [34] of the same molecule?
Its residual activity is 87%.

And the residual activity [35]?
The residual activity was 89%.

What about the residual activity [36] of the same molecule?
The residual activity was 95%.

And the residual activity [37]?
Its residual activity is 95%.

What about the residual activity [38] of the same molecule?
Its residual activity is 100%.

What about the residual activity [39] of the same molecule?
The residual activity was 80%.

What about the residual activity [40] of the same molecule?
Its residual activity is 56%.

What about the residual activity [41] of the same molecule?
Its residual activity is 96%.

And the residual activity [42]?
The residual activity was 94%.

And the residual activity [43]?
Its residual activity is 100%.

And the inhibition [44]?
Its inhibition is -9.46%.

What about the inhibition [45] of the same molecule?
Its inhibition is 16.4%.
